Results taken from patent US11566028B2, “Bicyclic heterocycles as FGFR inhibitors” (Incyte Corporation, priority 2019, dated 2023).
Like-named read-outs stand apart in the source and are kept apart here.

Experiments:
Format in all cases: biochemical
FGFR1 = FGFR1 (Homo sapiens (Human), UniProt P11362); assay: FGFR Enzymatic Assay (FRET peptide phosphorylation), FGFR1; details: pre-incubated for 4 hours
FGFR2 = FGFR2 (Homo sapiens (Human), UniProt P21802); assay: FGFR Enzymatic Assay (FRET peptide phosphorylation), FGFR2
Chain of FGFR2 (P21802 22-821): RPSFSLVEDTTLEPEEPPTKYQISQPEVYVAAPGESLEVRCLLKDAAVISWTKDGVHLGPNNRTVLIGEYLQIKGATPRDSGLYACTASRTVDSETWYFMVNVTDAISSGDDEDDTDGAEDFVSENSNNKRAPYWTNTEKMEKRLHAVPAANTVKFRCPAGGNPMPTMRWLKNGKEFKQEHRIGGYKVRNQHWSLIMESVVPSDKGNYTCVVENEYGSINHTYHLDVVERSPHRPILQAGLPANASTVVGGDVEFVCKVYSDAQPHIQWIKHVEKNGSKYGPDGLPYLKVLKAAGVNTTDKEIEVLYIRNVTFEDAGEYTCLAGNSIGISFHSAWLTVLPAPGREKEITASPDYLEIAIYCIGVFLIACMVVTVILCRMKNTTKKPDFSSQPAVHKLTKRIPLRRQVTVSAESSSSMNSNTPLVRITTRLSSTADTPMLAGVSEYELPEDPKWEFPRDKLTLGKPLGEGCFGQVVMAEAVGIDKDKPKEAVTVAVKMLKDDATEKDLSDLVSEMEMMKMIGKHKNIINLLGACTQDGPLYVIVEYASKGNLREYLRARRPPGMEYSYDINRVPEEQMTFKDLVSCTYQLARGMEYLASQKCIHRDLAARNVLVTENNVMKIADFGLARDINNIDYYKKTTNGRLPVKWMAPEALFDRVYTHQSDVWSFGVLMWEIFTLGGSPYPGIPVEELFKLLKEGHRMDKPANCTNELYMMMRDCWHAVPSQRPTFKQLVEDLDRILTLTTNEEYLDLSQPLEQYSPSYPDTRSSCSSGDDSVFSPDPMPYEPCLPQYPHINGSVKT

FGFR4 = FGFR4 (Homo sapiens (Human), UniProt P22455); assay: FGFR Enzymatic Assay (FRET peptide phosphorylation), FGFR4
Chain of FGFR4 (P22455 22-802): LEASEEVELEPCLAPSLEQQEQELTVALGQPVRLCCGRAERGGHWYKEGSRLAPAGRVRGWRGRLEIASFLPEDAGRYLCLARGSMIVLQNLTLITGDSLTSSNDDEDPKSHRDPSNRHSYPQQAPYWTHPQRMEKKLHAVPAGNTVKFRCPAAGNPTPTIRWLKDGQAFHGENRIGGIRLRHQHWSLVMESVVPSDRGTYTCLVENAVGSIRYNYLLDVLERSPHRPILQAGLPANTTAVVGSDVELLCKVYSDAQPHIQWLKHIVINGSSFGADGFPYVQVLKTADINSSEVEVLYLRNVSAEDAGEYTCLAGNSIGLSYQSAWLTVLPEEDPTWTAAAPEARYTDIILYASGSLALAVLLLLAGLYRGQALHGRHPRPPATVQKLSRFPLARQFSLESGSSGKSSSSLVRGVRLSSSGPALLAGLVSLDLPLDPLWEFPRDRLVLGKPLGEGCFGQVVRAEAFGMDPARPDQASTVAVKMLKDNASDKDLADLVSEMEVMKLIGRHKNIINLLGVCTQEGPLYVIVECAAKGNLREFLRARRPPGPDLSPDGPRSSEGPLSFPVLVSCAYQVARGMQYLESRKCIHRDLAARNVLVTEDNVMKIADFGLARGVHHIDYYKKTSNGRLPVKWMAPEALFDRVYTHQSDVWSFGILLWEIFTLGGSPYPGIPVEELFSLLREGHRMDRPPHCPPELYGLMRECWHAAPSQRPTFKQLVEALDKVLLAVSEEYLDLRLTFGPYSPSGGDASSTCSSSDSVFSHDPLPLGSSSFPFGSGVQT

[1] = molecular target: wild-type un-phosphorylated FGFR3 protein (Homo sapiens (Human), UniProt P22607); assay: FGFR Enzymatic Assay (FRET peptide phosphorylation), FGFR3; details: pre-incubated for 4 hours
Chain of wild-type un-phosphorylated FGFR3 protein (P22607 23-806): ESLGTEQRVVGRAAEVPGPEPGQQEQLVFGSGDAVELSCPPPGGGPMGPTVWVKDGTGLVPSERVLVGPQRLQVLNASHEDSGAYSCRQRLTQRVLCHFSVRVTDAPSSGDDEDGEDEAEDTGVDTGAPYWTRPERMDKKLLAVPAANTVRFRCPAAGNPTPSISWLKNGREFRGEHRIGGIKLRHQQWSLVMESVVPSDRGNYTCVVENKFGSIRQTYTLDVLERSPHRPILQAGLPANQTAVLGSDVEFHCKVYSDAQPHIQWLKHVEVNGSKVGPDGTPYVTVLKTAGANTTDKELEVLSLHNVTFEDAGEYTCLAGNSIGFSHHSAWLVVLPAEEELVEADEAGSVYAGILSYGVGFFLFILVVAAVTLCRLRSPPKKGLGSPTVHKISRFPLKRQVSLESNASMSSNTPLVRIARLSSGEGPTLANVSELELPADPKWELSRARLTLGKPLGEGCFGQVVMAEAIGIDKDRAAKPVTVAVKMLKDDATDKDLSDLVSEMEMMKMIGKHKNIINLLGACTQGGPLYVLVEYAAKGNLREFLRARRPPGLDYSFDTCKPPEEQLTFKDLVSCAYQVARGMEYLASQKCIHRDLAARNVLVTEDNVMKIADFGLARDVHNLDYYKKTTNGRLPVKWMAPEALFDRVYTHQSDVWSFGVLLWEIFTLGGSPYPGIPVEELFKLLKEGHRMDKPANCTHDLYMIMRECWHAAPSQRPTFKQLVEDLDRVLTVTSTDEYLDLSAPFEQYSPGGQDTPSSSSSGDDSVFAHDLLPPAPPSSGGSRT

Chain of FGFR1 (P11362 22-822): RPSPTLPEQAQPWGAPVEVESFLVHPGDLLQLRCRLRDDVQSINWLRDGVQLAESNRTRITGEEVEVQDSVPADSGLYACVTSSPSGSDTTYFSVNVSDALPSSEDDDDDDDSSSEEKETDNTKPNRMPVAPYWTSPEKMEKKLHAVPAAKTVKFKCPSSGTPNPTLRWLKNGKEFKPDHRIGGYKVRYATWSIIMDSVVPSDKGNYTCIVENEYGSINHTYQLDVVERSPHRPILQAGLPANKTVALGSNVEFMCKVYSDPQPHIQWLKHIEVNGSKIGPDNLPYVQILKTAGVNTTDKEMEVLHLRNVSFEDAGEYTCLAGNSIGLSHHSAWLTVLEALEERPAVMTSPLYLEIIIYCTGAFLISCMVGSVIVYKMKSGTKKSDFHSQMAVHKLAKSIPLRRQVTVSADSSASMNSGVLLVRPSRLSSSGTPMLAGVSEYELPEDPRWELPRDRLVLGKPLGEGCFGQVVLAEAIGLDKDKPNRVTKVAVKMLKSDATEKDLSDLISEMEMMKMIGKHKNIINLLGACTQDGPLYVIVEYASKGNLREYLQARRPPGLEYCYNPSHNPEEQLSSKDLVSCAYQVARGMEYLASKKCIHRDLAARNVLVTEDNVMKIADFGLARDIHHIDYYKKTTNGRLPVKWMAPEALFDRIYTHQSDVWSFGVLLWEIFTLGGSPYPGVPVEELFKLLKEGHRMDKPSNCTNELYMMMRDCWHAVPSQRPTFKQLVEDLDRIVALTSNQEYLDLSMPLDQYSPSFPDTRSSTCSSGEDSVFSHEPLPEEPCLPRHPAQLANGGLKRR

Row | SMILES | IC50 (FGFR1) [µM] | IC50 (FGFR2; pre-incubated for 4 hours) [µM] | IC50 (FGFR4; pre-incubated for 4 hours) [µM] | IC50 [1] [µM] | IC50 (FGFR2) [µM] | IC50 (FGFR4) [µM]
1 | CNC(=O)c1cncc(-c2cnn3cc(-c4cnn(C)c4)c(OC4CCOC4)nc23)c1 (racemic) [Example 3, N-Methyl-5-(6-(1-methyl-1H-pyrazol-4-yl)-5-((tetrahydrofuran-3-yl)oxy)pyrazolo[1,5-a]pyrimidin-3-yl)nicotinamide] | 0.03 to 0.2 | < 0.01 | ≥ 0.2 |  |  | 
2 | CNC(=O)c1cc(C)c(F)c(-c2cnn3cc(-c4cnn(C)c4)c(OC4CCOC4)nc23)c1 (racemic) [Example 4, 4-Fluoro-N,3-dimethyl-5-(6-(1-methyl-1H-pyrazol-4-yl)-5-((tetrahydrofuran-3-yl)oxy)pyrazolo[1,5-a]pyrimidin-3-yl)benzamide] | 0.03 to 0.2 | < 0.01 | 0.03 to 0.2 | < 0.01 |  | 
3 | Cn1cc(-c2cn3ncc(-c4cccc5[nH]ncc45)c3nc2O[C@H]2CCOC2)cn1 [Example 33, (S)-3-(1H-Indazol-4-yl)-6-(1-methyl-1H-pyrazol-4-yl)-5-((tetrahydrofuran-3-yl)oxy)pyrazolo[1,5-a]pyrimidine] | 0.01 to 0.03 | < 0.01 | 0.03 to 0.2 | < 0.01 |  | 
4 | CNC(=O)c1cc(C)c(F)c(-c2cnn3cc(-c4cnn(C5CCN(C)CC5)c4)c(N[C@H]4CCOC4)nc23)c1 [Example 34, (S)-4-Fluoro-N,3-dimethyl-5-(6-(1-(1-methylpiperidin-4-yl)-1H-pyrazol-4-yl)-5-((tetrahydrofuran-3-yl)amino)pyrazolo[1,5-a]pyrimidin-3-yl)benzamide] | 0.01 to 0.03 | < 0.01 | 0.03 to 0.2 | < 0.01 |  | 
5 | CNC(=O)c1cc(C)c(F)c(-c2cnn3cc(-c4cnn(C5CN(C)C5)c4)c(N[C@H]4CCOC4)nc23)c1 [Example 35, (S)-4-Fluoro-N,3-dimethyl-5-(6-(1-(1-methylazetidin-3-yl)-1H-pyrazol-4-yl)-5-((tetrahydrofuran-3-yl)amino)pyrazolo[1,5-a]pyrimidin-3-yl)benzamide] | 0.01 to 0.03 | < 0.01 | ≥ 0.2 | < 0.01 |  | 
6 | CNC(=O)c1cc(C)c(F)c(-c2cnn3cc(-c4cnn(CC(C)(C)O)c4)c(N[C@H]4CCOC4)nc23)c1 [Example 40, (S)-4-Fluoro-3-(6-(1-(2-hydroxy-2-methylpropy1)-1H-pyrazol-4-y1)-5-((tetrahydrofuran-3-yl)amino)pyrazolo[1,5-a]pyrimidin-3-y1)-N,5-dimethylbenzamide] | 0.01 to 0.03 |  |  | < 0.01 | < 0.01 | 0.03 to 0.2
7 | CNC(=O)c1cc(C)c(F)c(-c2cnn3cc(-c4cnn(C5CCOC5)c4)c(N[C@H]4CCOC4)nc23)c1 (stereo partly drawn) [Example 41, 4-Fluoro-N,3-dimethyl-5-(6-(1-(tetrahydrofuran-3-yl)-1H-pyrazol-4-y1)-5-(((S)-tetrahydrofuran-3-yl)amino)pyrazolo[1,5-a]pyrimidin-3-yl)benzamide] | 0.03 to 0.2 |  |  | < 0.01 | < 0.01 | 0.03 to 0.2
8 | CNC(=O)c1cc(C)c(F)c(-c2cnn3cc(-c4cnc(C)o4)c(N[C@H]4CCOC4)nc23)c1 [Example 42, (S)-4-Fluoro-N,3-dimethyl-5-(6-(2-methyloxazol-5-y1)-5-((tetrahydrofuran-3-yl)amino)pyrazolo[1,5-a]pyrimidin-3-yl)benzamide] | 0.01 to 0.03 |  |  | < 0.01 | < 0.01 | 0.03 to 0.2
9 | CCn1ccc(-c2cn3ncc(-c4cc(C(=O)NC)cc(C)c4F)c3nc2N[C@H]2CCOC2)n1 [Example 43, (S)-3-(6-(1-Ethy1-1H-pyrazol-3-y1)-5-((tetrahydrofuran-3-yl)amino)pyrazolo[1,5-a]pyrimidin-3-y1)-4-fluoro-N,5-dimethylbenzamide] | 0.01 to 0.03 |  |  | < 0.01 | < 0.01 | 0.03 to 0.2
10 | CCS(=O)(=O)c1cc(F)c(F)c(-c2cnn3cc(-c4cnn(C)c4)c(N[C@H]4CCOC4)nc23)c1 [Example 45, (S)-3-(5-(Ethylsulfonyl)-2,3-difluorophenyl)-6-(1-methyl-1H-pyrazol-4-yl)-N-(tetrahydrofuran-3-yl)pyrazolo[1,5-a]pyrimidin-5-amine] | 0.01 to 0.03 |  | ≥ 0.2 |  |  | 
11 | CCS(=O)(=O)c1cc(F)c(F)c(-c2cnn3cc(-c4cnn(C)c4)c(O[C@H]4CCOC4)nc23)c1 [Example 46, (S)-3-(5-(Ethylsulfonyl)-2,3-difluorophenyl)-6-(1-methyl-1H-pyrazol-4-yl)-5-((tetrahydrofuran-3-yl)oxy)pyrazolo[1,5-a]pyrimidine] | 0.01 to 0.03 | < 0.01 | ≥ 0.2 |  |  | 
12 | Cn1cc(-c2cn3ncc(-c4cccc(-c5cc[nH]n5)c4)c3nc2O[C@H]2CCOC2)cn1 [Example 51, (S)-3-(3-(1H-Pyrazol-3-yl)phenyl)-6-(1-methyl-1H-pyrazol-4-yl)-5-((tetrahydrofuran-3-yl)oxy)pyrazolo[1,5-a]pyrimidine] | 0.01 to 0.03 | < 0.01 | ≥ 0.2 | < 0.01 |  | 
13 | CCn1cc(-c2cn3ncc(-c4cc(C(=O)NC)cc(F)c4F)c3nc2N[C@H]2CCOC2)cn1 [Example 53, (S)-3-(6-(1-Ethy1-1H-pyrazol-4-y1)-5-((tetrahydrofuran-3-yl)amino)pyrazolo[1,5-a]pyrimidin-3-y1)-4,5-difluoro-N-methylbenzamide] | 0.01 to 0.03 |  |  | < 0.01 | < 0.01 | > 0.2
14 | CNC(=O)c1cc(F)c(F)c(-c2cnn3cc(-c4cnn(CCN5CCOCC5)c4)c(N[C@H]4CCOC4)nc23)c1 [Example 55, (S)-3,4-Difluoro-N-methy1-5-(6-(1-(2-morpholinoethyl)-1H-pyrazol-4-y1)-5-((tetrahydrofuran-3-yl)amino)pyrazolo[1,5-a]pyrimidin-3-yl)benzamide] | < 0.01 |  |  | < 0.01 | < 0.01 | 0.03 to 0.2
15 | CNC(=O)c1cc(F)c(F)c(-c2cnn3cc(-c4cnc(C)o4)c(N[C@H]4CCOC4)nc23)c1 [Example 58, (S)-3,4-Difluoro-N-methyl-5-(6-(2-methyloxazol-5-y1)-5-((tetrahydrofuran-3-yl)amino)pyrazolo[1,5-a]pyrimidin-3-yl)benzamide] | < 0.01 |  |  | < 0.01 | < 0.01 | 0.03 to 0.2
16 | CNC(=O)c1cncc(-c2cnn3cc(-c4ccn(C)n4)c(N[C@H]4CCOC4)nc23)c1 [Example 59, (S)—N-Methyl-5-(6-(1-methyl-1H-pyrazol-3-yl)-5-((tetrahydrofuran-3-yl)amino)pyrazolo[1,5-a]pyrimidin-3-yl)nicotinamide] | < 0.01 | < 0.01 | 0.01 to 0.03 | < 0.01 |  | 
17 | CNC(=O)c1cncc(-c2cnn3cc(-c4cnn(C)n4)c(N[C@H]4CCOC4)nc23)c1 [Example 60, (S)—N-Methyl-5-(6-(2-methyl-2H-1,2,3-triazol-4-yl)-5-((tetrahydrofuran-3-yl)amino)pyrazolo[1,5-a]pyrimidin-3-yl)nicotinamide] | 0.03 to 0.2 | < 0.01 | ≥ 0.2 | < 0.01 |  | 
18 | CCNC(=O)c1cncc(-c2cnn3cc(-c4ccn(C)n4)c(N[C@H]4CCOC4)nc23)c1 [Example 61, (S)—N-Ethyl-5-(6-(1-methyl-1H-pyrazol-3-yl)-5-((tetrahydrofuran-3-yl)amino)pyrazolo[1,5-a]pyrimidin-3-yl)nicotinamide] | 0.03 to 0.2 | < 0.01 | 0.03 to 0.2 | < 0.01 |  | 
19 | CC(C)NC(=O)c1cncc(-c2cnn3cc(-c4ccn(C)n4)c(N[C@H]4CCOC4)nc23)c1 [Example 62, (S)—N-Isopropyl-5-(6-(1-methyl-1H-pyrazol-3-yl)-5-((tetrahydrofuran-3-yl)amino)pyrazolo[1,5-a]pyrimidin-3-yl)nicotinamide] | 0.03 to 0.2 | 0.01 to 0.03 | ≥ 0.2 |  |  | 
20 | [2H]C([2H])([2H])NC(=O)c1cncc(-c2cnn3cc(-c4cnn(C(C)C)c4)c(O[C@H]4CCOC4)nc23)c1 [Example 63, (S)-5-(6-(1-Isopropyl-1H-pyrazol-4-yl)-5-((tetrahydrofuran-3-yl)oxy)pyrazolo[1,5-a]pyrimidin-3-yl)-N-(methyl-d3)nicotinamide] |  |  | 0.03 to 0.2 |  |  | 
21 | [2H]C([2H])([2H])NC(=O)c1cc(C)c(F)c(-c2cnn3cc(-c4cnn([C@@H]5CCN(C)C[C@H]5F)c4)c(O[C@H]4CCOC4)nc23)c1 [Example 64, 4-Fluoro-3-(6-(1-((3R,4R)-3-fluoro-1-methylpiperidin-4-yl)-1H-pyrazol-4-yl)-5-(((S)-tetrahydrofuran-3-yl)oxy)pyrazolo[1,5-a]pyrimidin-3-yl)-5-methyl-N-(methyl-d3)benzamide] | < 0.01 | < 0.01 | 0.01 to 0.03 | < 0.01 |  | 
22 | [2H]C([2H])([2H])NC(=O)c1cc(C)c(F)c(-c2cnn3cc(-c4cnc(C5CCN(C(C)C)CC5)o4)c(N[C@H]4CCOC4)nc23)c1 [Example 68, (S)-4-Fluoro-3-(6-(2-(1-isopropylpiperidin-4-yl)oxazol-5-yl)-5-((tetrahydrofuran-3-yl)amino)pyrazolo[1,5-a]pyrimidin-3-yl)-5-methyl-N-(methyl-d3)benzamide] | 0.03 to 0.2 | < 0.01 |  | < 0.01 |  | 
23 | CNC(=O)c1cc(C)c(F)c(-c2cnn3cc(-c4cnc(C5(F)CCN(C)CC5)o4)c(N[C@H]4CCOC4)nc23)c1 [Example 69, (S)-4-Fluoro-3-(6-(2-(4-fluoro-1-methylpiperidin-4-yl)oxazol-5-yl)-5-((tetrahydrofuran-3-yl)amino)pyrazolo[1,5-a]pyrimidin-3-yl)-N,5-dimethylbenzamide] | 0.03 to 0.2 | < 0.01 |  | < 0.01 |  | 
24 | CNC(=O)c1cc(C)c(F)c(-c2cnn3cc(-c4cnc(N5CCN(C)CC5)o4)c(N[C@H]4CCOC4)nc23)c1 [Example 70, (S)-4-Fluoro-N,3-dimethyl-5-(6-(2-(4-methylpiperazin-1-yl)oxazol-5-yl)-5-((tetrahydrofuran-3-yl)amino)pyrazolo[1,5-a]pyrimidin-3-yl)benzamide] | 0.03 to 0.2 | < 0.01 |  | < 0.01 |  | 
